What all share (format): cell-based
In data set [1] the target is Nav 1.5 (Homo sapiens (Human), UniProt Q14524). The data set can be described thus: Nav 1.5 in vitro PX assay (PatchXpress whole cell voltage clamp). The settings on record: 293 cells stably transfected with Nav 1.5. The method, then:
Nav 1.5 In Vitro PX Assay
293 cells stably transfected with Nav 1.5 were recorded in whole cell voltage clamp mode with the PatchXpress automated electrophysiology system according the manufacturer's specifications (Molecular Devices, LLC, Sunnyvale, Calif.). Cells were held at a holding potential of −50 mV to inactivate sodium channels. To elicit sodium currents the voltage was changed to −120 mV to recover a portion of the channels, followed by delivery of test pulses of 20 msec duration to 0 mV, at 0.1 Hz. A single concentration of test compound was applied to cells for a duration of 5 minutes. Peak sodium current was measured at the end of the compound addition period to determine percent inhibition. A minimum of two cells were tested per concentration. IC50 curves were fitted to percent inhibition as a function of concentration.

The target in data set [2] is T1, Nav 1.7 (Homo sapiens (Human), UniProt Q15858). The data set can be described thus: Nav 1.7 in vitro PX assay (PatchXpress whole cell voltage clamp). As to conditions: 293 cells, human Nav1.7, partially inactivated state; read-out: Nav1.7 PX IC50 IP. Put shortly:
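HEK293 cells stably expressing human Nav1.7, whole-cell voltage clamp on PatchXpress, held at potential giving 20–50% inactivation; current elicited by 20 msec pulse to −10 mV.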

Data set [3] addresses T1, Nav 1.7. The data set can be described thus: Nav 1.7 IWQ in vitro assay (IonWorks Quattro population patch-clamp). The settings on record: 293 cells stably transfected with Nav 1.7; second part of table; read-out: Nav1.7 IWQ IC50 IP. Put shortly:
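HEK293 cells stably expressing Nav 1.7, recorded by automated population patch-clamp with a train of depolarizations producing increasing inactivation. Single compound concentration added during 3–8 min unclamped period, then same protocol repeated. Leak-corrected current at 26th pulse to −20 mV gave percent block (duplicate); IC50 fitted from concentration–block curves.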
For orientation: In patch-clamp work, channel activity is measured electrically.

Where [4] appears, read: second part of table, read-out: Nav1.5 PX IC50.
Where [5] appears, read: first part of table, read-out: Nav 1.5 PX IC50.

Experimental findings from US9012443B2 (Amgen Inc., priority 2011, dated 2015) are described below.

Each structure is given as a SMILES string. Structures can show the parent of a compound that is named as a salt. Where two headings read alike, the source gives them in different places.

Sequence of Nav 1.5 (Q14524 whole entry): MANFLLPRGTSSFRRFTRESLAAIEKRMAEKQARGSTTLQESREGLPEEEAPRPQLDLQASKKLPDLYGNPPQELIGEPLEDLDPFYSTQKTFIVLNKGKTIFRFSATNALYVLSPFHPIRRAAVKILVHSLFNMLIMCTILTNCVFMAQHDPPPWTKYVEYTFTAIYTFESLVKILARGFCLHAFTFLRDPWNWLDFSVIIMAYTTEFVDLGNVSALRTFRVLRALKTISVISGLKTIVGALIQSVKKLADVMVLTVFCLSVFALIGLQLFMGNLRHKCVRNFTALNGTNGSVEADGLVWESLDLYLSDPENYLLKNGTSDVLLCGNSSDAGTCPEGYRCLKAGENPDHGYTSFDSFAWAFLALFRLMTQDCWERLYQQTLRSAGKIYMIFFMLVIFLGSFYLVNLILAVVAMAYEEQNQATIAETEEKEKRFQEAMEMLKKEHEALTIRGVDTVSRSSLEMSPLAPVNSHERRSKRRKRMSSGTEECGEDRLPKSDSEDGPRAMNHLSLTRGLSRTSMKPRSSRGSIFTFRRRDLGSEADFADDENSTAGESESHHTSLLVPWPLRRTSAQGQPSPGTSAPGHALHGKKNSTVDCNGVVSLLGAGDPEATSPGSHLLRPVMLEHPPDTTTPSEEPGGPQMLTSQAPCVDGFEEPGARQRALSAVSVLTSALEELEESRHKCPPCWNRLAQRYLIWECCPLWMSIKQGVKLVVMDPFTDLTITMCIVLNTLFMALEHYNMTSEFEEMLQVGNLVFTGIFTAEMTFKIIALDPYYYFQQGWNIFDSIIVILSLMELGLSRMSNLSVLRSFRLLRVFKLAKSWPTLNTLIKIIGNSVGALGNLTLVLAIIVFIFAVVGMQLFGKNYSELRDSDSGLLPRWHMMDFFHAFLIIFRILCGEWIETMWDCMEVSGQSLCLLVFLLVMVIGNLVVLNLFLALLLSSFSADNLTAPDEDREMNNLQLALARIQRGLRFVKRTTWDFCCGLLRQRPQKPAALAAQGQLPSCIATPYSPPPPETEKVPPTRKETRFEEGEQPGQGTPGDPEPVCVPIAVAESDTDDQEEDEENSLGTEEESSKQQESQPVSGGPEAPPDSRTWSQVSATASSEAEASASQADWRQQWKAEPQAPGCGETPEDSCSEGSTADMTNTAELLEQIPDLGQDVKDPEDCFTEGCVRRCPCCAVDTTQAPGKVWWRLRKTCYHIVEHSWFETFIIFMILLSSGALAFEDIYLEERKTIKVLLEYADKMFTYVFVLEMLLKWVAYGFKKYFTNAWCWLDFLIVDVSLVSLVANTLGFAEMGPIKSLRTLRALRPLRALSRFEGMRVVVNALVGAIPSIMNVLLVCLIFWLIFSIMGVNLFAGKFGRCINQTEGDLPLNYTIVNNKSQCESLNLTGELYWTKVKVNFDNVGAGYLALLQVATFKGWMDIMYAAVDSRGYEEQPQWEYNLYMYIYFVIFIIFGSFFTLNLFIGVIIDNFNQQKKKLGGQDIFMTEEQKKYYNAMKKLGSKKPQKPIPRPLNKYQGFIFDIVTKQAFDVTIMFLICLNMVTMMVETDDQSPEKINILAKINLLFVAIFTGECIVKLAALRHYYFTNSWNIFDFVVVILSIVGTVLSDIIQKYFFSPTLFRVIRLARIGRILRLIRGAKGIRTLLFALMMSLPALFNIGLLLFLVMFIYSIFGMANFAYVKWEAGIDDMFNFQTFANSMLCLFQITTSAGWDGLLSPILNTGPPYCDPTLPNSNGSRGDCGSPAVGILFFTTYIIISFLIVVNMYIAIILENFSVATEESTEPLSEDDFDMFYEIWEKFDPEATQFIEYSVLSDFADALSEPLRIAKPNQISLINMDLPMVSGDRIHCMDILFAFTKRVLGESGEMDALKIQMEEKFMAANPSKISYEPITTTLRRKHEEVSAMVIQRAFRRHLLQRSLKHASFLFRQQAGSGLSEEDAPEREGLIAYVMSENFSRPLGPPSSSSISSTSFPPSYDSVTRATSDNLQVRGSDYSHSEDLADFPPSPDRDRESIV
T1 sequence (Q15858 whole entry): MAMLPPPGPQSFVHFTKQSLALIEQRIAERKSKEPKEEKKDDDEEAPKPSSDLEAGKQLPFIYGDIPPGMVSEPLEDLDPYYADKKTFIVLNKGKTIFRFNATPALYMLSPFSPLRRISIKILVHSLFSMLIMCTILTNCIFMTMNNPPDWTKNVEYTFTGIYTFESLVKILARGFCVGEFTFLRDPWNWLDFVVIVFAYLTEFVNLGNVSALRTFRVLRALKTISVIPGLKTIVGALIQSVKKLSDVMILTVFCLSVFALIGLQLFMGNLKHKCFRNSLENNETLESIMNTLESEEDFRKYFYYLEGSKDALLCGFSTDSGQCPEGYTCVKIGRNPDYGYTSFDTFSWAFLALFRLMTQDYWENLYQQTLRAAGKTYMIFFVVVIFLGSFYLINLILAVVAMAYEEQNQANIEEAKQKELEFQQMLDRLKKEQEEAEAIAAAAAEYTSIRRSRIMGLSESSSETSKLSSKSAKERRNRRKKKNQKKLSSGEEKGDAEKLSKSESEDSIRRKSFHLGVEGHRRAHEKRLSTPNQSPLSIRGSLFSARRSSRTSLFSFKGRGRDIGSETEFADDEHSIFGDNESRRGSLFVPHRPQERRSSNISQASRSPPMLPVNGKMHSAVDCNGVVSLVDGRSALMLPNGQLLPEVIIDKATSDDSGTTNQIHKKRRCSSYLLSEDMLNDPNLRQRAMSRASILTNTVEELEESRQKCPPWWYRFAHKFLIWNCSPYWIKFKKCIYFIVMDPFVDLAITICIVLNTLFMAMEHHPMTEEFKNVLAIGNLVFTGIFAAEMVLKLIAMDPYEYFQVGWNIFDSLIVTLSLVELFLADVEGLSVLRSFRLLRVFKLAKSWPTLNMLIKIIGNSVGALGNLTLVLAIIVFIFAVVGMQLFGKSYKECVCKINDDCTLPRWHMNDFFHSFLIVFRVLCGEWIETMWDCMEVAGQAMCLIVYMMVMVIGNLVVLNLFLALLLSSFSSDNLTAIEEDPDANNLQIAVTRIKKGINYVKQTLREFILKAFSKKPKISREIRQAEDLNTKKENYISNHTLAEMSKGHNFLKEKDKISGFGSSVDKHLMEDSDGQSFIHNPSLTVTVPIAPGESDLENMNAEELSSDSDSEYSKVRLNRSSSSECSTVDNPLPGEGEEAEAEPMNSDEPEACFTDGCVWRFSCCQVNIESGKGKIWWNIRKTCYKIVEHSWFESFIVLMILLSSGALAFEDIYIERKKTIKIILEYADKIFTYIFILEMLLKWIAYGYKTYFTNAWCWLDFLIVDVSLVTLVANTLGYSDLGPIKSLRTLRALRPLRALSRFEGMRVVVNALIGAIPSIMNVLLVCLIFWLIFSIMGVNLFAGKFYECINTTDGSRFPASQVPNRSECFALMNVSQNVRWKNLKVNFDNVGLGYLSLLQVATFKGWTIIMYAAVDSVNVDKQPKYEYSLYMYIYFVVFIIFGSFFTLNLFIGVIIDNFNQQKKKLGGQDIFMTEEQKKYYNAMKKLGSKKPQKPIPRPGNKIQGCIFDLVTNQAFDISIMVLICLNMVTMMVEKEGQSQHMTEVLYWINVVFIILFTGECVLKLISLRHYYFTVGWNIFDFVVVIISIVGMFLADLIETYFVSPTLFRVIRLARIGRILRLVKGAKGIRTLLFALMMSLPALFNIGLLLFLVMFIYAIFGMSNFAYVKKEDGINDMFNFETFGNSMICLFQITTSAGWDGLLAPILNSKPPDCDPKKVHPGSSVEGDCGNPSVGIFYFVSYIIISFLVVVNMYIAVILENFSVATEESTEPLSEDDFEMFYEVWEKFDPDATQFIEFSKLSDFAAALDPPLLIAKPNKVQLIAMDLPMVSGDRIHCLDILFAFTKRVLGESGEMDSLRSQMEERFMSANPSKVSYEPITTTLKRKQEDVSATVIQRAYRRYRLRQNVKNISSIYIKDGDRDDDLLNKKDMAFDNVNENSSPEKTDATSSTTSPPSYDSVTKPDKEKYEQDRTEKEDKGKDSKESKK

Turning to `COc1cc(-c2cccc(F)c2)c(Cl)cc1-c1ncnc2cc(S(=O)(=O)Nc3ccncn3)ccc12` [Example 523, 4-(2-CHLORO-3′-FLUORO-5-METHOXY-[1,1′-BIPHENYL]-4-YL)-N-(PYRIMIDIN-4-YL)QUINAZOLINE-7-SULFONAMIDE], the IC50 in data set [1] (setting [4]) was 6590 nM; in data set [2] it was 65 nM.
On to `COc1cc(-c2cc(F)cc(F)c2)ccc1-c1nccc2cc(S(=O)(=O)Nc3nncs3)ccc12` [Example 355, 1-(3′,5′-DIFLUORO-3-METHOXY-[1,1′-BIPHENYL]-4-YL)-N-(1,3,4-THIADIAZOL-2-YL)ISOQUINOLINE-6-SULFONAMIDE 2,2,2-TRIFLUOROACETATE], for which the IC50 in data set [1] (setting [4]) is above 30000 nM; in data set [2], 48 nM.
As to `COc1ccc(Cl)cc1-c1n[nH]c(=O)c2cc(S(=O)(=O)Nc3ncns3)ccc12` [Example 505, 1-(5-CHLORO-2-METHOXYPHENYL)-4-OXO-N-(1,2,4-THIADIAZOL-5-YL)-3,4-DIHYDROPHTHALAZINE-6-SULFONAMIDE], the IC50 in data set [1] (setting [4]) is above 30000 nM; in data set [2] it was 258 nM.
The matching figures for `COc1ccc(-c2cccc(C(F)(F)F)c2)cc1-c1nccc2cc(S(=O)(=O)Nc3nncs3)ccc12` [Example 344, 1-(4-METHOXY-3′-(TRIFLUOROMETHYL)-[1,1′-BIPHENYL]-3-YL)-N-(1,3,4-THIADIAZOL-2-YL)ISOQUINOLINE-6-SULFONAMIDE]: above 30000 nM and 34 nM.
The matching figures for `COc1ccccc1-c1c(C#N)cnc2cc(S(=O)(=O)Nc3nccs3)ccc12` [Example 324, 3-CYANO-4-(2-METHOXYPHENYL)-N-(THIAZOL-2-YL)QUINOLINE-7-SULFONAMIDE]: above 30000 nM and 662 nM.
For `COc1cc(-c2ccc(F)c(F)c2)ccc1-c1nccc2cc(S(=O)(=O)Nc3ccncn3)ccc12` [Example 448, 1-(3′,4′-DIFLUORO-3-METHOXY-[1,1′-BIPHENYL]-4-YL)-N-(PYRIMIDIN-4-YL)ISOQUINOLINE-6-SULFONAMIDE], the 50% inhibitory concentration (IC50) in data set [1] (setting [4]) is above 30000 nM; in data set [2], 38 nM.
Regarding `COc1cc(-c2cc(F)cc(F)c2)c(C#N)cc1-c1nccc2cc(S(=O)(=O)Nc3ccon3)ccc12` [Example 343, 1-(2-CYANO-3′,5′-DIFLUORO-5-METHOXY-[1,1′-BIPHENYL]-4-YL)-N-(ISOXAZOL-3-YL)ISOQUINOLINE-6-SULFONAMIDE], the results for the IC50 in data set [1] (setting [4]) and in data set [2] were above 30000 nM and 145 nM, respectively.
On to `O=S(=O)(Nc1ncns1)c1ccc2c(-c3ccc(Cl)cc3F)cccc2c1` [Example 35], for which the half-inhibitory concentration (IC50) in data set [1] (setting [5]) was found to be 9990 nM.
Consider `COc1cc(-c2cccc(F)c2F)ccc1-c1nccc2cc(S(=O)(=O)Nc3ccncn3)ccc12` [Example 444, 1-(2′,3′-difluoro-3-methoxy-[1,1′-biphenyl]-4-yl)-N-(pyrimidin-4-yl)isoquinoline-6-sulfonamide], for which the IC50 in data set [1] (setting [4]) was above 30000 nM; in data set [2] it was 185 nM.
As for `COc1cc(C(F)(F)F)ccc1-c1nccc2cc(S(=O)(=O)Nc3nc(C#N)cs3)ccc12` [Example 421, N-(4-CYANOTHIAZOL-2-YL)-1-(2-METHOXY-4-(TRIFLUOROMETHYL)PHENYL)ISOQUINOLINE-6-SULFONAMIDE], the IC50 is above 30000 nM in data set [1] (setting [4]) and 786 nM in data set [2].
The matching figures for `COc1cc(-c2ccc(F)cc2F)ccc1-c1nccc2cc(S(=O)(=O)Nc3ccncn3)ccc12` [Example 445, 1-(2′,4′-DIFLUORO-3-METHOXY-[1,1′-BIPHENYL]-4-YL)-N-(PYRIMIDIN-4-YL)ISOQUINOLINE-6-SULFONAMIDE]: above 30000 nM and 218 nM.
The matching figures for `COc1cc(C(F)(F)F)ccc1-c1ccnc2cc(S(=O)(=O)Nc3nccs3)c(F)cc12` [Example 319, 6-FLUORO-4-(2-METHOXY-4-(TRIFLUOROMETHYL)PHENYL)-N-(THIAZOL-2-YL)QUINOLINE-7-SULFONAMIDE 2,2,2-TRIFLUOROACETATE]: 2790 nM and 407 nM.
The matching figures for `COc1cc(-c2cccc(F)c2)c(Cl)cc1-c1ncnc2cc(S(=O)(=O)Nc3ncns3)ccc12` [Example 521, 4-(2-CHLORO-3′-FLUORO-5-METHOXY-[1,1′-BIPHENYL]-4-YL)-N-(1,2,4-THIADIAZOL-5-YL)QUINAZOLINE-7-SULFONAMIDE]: 4750 nM and 19 nM.
As to `COc1cc(C)ccc1-c1nccc2cc(S(=O)(=O)Nc3nccs3)ccc12` [Example 175], in data set [1] (setting [4]), the IC50 is above 30000 nM.
Consider `O=S(=O)(Nc1ncns1)c1ccc2c(-c3ccc(C(F)(F)F)cc3F)cccc2c1` [Example 36], for which the half-inhibitory concentration (IC50) in data set [1] (setting [5]) came to 15100 nM.
Still for that read-out and setting: the same measure for `Nc1cc(Cl)ccc1-c1cccc2cc(S(=O)(=O)Nc3ncns3)ccc12` [Example 31]: above 30000 nM.
Regarding `O=S(=O)(Nc1ncns1)c1ccc2c(-c3ccc(C(F)(F)F)cc3)cccc2c1` [Example 37], the IC50 in data set [1] (setting [5]) came to 14400 nM.
With `COc1cc(Cl)ccc1-c1cccc2cc(S(=O)(=O)Nc3ncns3)ccc12` [Example 30], in data set [1] (setting [5]), the half-inhibitory concentration (IC50) stood at 19900 nM.
On to `Cc1cc(Cl)ccc1-c1cccc2cc(S(=O)(=O)Nc3ncns3)ccc12` [Example 33], for which, in data set [1] (setting [5]), the IC50 was 9580 nM.
Same read-out and setting: the same measure for `O=S(=O)(Nc1ncns1)c1ccc2c(-c3ccc(Cl)cc3)cccc2c1` [Example 34]: 5960 nM.
Turning to `O=S(=O)(Nc1ccncn1)c1ccc2c(-c3ccc(C(F)(F)F)cc3C3(F)CNC3)cccc2c1` [Example 118], the IC50 in data set [3] was 30 nM; in data set [2], 652 nM.
The matching figures for `O=S(=O)(Nc1ccncn1)c1ccc2c(OCc3cccc4[nH]ncc34)nccc2c1` [Example 136, 1-((1H-INDAZOL-4-YL)METHOXY)-N-(PYRIMIDIN-4-YL)ISOQUINOLINE-6-SULFONAMIDE]: 3590 nM and above 30000 nM.
With `COc1cc(C#N)ccc1-c1nncc2cc(S(=O)(=O)Nc3nccs3)ccc12` [Example 251, 1-(4-CYANO-2-METHOXYPHENYL)-N-(THIAZOL-2-YL)PHTHALAZINE-6-SULFONAMIDE], the half-inhibitory concentration (IC50) was 80 nM in data set [3] and 1990 nM in data set [2].
Take `COc1cc(C(F)(F)F)ccc1-c1nccc2cc(S(=O)(=O)Nc3nccs3)cnc12` [Example 291, 8-(2-METHOXY-4-(TRIFLUOROMETHYL)PHENYL)-N-(THIAZOL-2-YL)-1,7-NAPHTHYRIDINE-3-SULFONAMIDE]: the IC50 in data set [3] was 160 nM; in data set [2], 2530 nM.
On the same counts, the results for `O=S(=O)(Nc1ccncn1)c1ccc2c(-c3cc4cc(F)ccc4[nH]3)cccc2c1` [Example 114] are 820 nM and 11300 nM.
`COc1cc(C(F)(F)F)ccc1-c1nccc2cc(S(=O)(=O)Nc3nccs3)ccc12` [Example 196, 1-(2-METHOXY-4-(TRIFLUOROMETHYL)PHENYL)-N-(THIAZOL-2-YL)ISOQUINOLINE-6-SULFONAMIDE]: the IC50 in data set [3] turned out to be 10 nM; in data set [2], 298 nM.
The matching figures for `COc1cc(C(F)(F)F)ccc1-c1ncc(F)c2cc(S(=O)(=O)Nc3ccncn3)ccc12` [Example 216, 4-FLUORO-1-(2-METHOXY-4-(TRIFLUOROMETHYL)PHENYL)-N-(PYRIMIDIN-4-YL)ISOQUINOLINE-6-SULFONAMIDE]: 40 nM and 559 nM.
The matching figures for `COc1cc(F)c(C)cc1-c1nccc2cc(S(=O)(=O)Nc3ccncn3)ccc12` [Example 154]: 40 nM and 2180 nM.
Regarding `COc1cc(C(F)(F)F)ccc1-c1ncc(OC)c2cc(S(=O)(=O)Nc3nccs3)ccc12` [Example 231, 4-METHOXY-1-(2-METHOXY-4-(TRIFLUOROMETHYL)PHENYL)-N-(THIAZOL-2-YL)ISOQUINOLINE-6-SULFONAMIDE 2,2,2-TRIFLUOROACETATE], the figures for the IC50 in data set [3] and in data set [2] were 40 nM and 270 nM, respectively.
In the case of `COc1cc(F)ccc1-c1nncc2cc(S(=O)(=O)Nc3ncc(F)s3)ccc12` [Example 256, 1-(4-FLUORO-2-METHOXYPHENYL)-N-(5-FLUOROTHIAZOL-2-YL)PHTHALAZINE-6-SULFONAMIDE], the IC50 in data set [3] was 70 nM; in data set [2], 840 nM.
`COc1cc(C(F)(F)F)ccc1-c1cncc2cc(S(=O)(=O)Nc3ccncn3)ccc12` [Example 285, 4-(2-METHOXY-4-(TRIFLUOROMETHYL)PHENYL)-N-(PYRIMIDIN-4-YL)ISOQUINOLINE-7-SULFONAMIDE HYDROCHLORIDE]: the half-maximal inhibitory concentration (IC50) is 40 nM in data set [3] and 580 nM in data set [2].
On to `COc1cc(Cl)ccc1-c1ncc(F)c2cc(S(=O)(=O)Nc3ccncn3)ccc12` [Example 217, 1-(4-CHLORO-2-METHOXYPHENYL)-4-FLUORO-N-(PYRIMIDIN-4-YL)ISOQUINOLINE-6-SULFONAMIDE], for which the figures for the IC50 in data set [3] and in data set [2] were 40 nM and 692 nM, respectively.
With `COc1cc(-c2cnn(C)c2)ccc1-c1nccc2cc(S(=O)(=O)Nc3nccs3)ccc12` [Example 203, 1-(2-METHOXY-4-(1-METHYL-1H-PYRAZOL-4-YL)PHENYL)-N-(THIAZOL-2-YL)ISOQUINOLINE-6-SULFONAMIDE], the IC50 stood at 310 nM in data set [3] and 3290 nM in data set [2].

As a reminder, the IC50 is the concentration that gives 50% inhibition.
